Where a SMILES comes first, the peptide text is derived from it.
How the values were obtained:
[1] = Saturated aspartame solutions: solubility with potassium hydroxide; type: physicochemical; conditions: for ASPARTAME SOLUBILITY (%): saturated solution
Method: The following saturated aspartame solutions were prepared, using aspartame as a model of an amphoteric pharmaceutical agent. These solutions contain the indicated amount of aspartame, the indicated solvent and the indicated amount of potassium hydroxide. […] The solutions were suitable for filling into soft gelatin capsules.

[2] = Saturated aspartame solutions: solubility with hydrochloric acid; type: physicochemical; conditions: for ASPARTAME SOLUBILITY (%): saturated solution
Excerpt: The following saturated aspartame solutions were made using aspartame for a model for an amphoteric pharmaceutical agent. […] These solutions are suitable for filling into soft gelatin capsules.

[3] = Saturated ibuprofen solutions: solubility (weight percent) with potassium hydroxide

Structure (SMILES): COC(=O)[C@H](Cc1ccccc1)NC(=O)[C@@H](N)CC(=O)O [aspartame] (H-Asp-Phe-OMe)
- enhanced solubility (in words) ([1]; potassium hydroxide, except for Pluronic L62): showed enhanced solubility in the presence of the hydroxide species
- ASPARTAME SOLUBILITY (%) ([1]; solvent LABRASOL, mole equivalent hydroxide 0): 0.30%
- ASPARTAME SOLUBILITY (%) ([1]; solvent LABRASOL, mole equivalent hydroxide (KOH) 0.50): 0.60%
- ASPARTAME SOLUBILITY (%) ([1]; solvent PLURONIC L62, mole equivalent hydroxide 0): 0.045%
- ASPARTAME SOLUBILITY (%) ([1]; solvent PLURONIC L62, mole equivalent hydroxide (KOH) 0.50): 0.045%
- ASPARTAME SOLUBILITY (%) ([1]; solvent TRANSCUTOL, mole equivalent hydroxide 0): 0.43%
- ASPARTAME SOLUBILITY (%) ([1]; solvent TRANSCUTOL, mole equivalent hydroxide (KOH) 0.50): 0.68%
- enhanced solubility (in words) ([2]; hydrochloric acid, each solvent): enhanced solubility was noted
- ASPARTAME SOLUBILITY (%) ([2]; solvent LABRASOL, mole equivalent acid 0): 0.30%
- ASPARTAME SOLUBILITY (%) ([2]; solvent LABRASOL, mole equivalent acid (HCl) 50 (so in the source)): 0.50%
- ASPARTAME SOLUBILITY (%) ([2]; solvent PLURONIC L62, mole equivalent acid 0): 0.045%
- ASPARTAME SOLUBILITY (%) ([2]; solvent PLURONIC L62, mole equivalent acid (HCl) 50 (so in the source)): 0.095%
- ASPARTAME SOLUBILITY (%) ([2]; solvent TRANSCUTOL, mole equivalent acid 0): 0.43%
- ASPARTAME SOLUBILITY (%) ([2]; solvent TRANSCUTOL, mole equivalent acid (HCl) 50 (so in the source)): 0.91%

Structure (SMILES): CC(C)Cc1ccc(C(C)C(=O)O)cc1 (stereo not shown) [ibuprofen]
- IBUPROFEN SOLUBILITY (%) ([3]; solvent LABRASOL, mole equivalent hydroxide 0, saturated solution): 25.0%
- IBUPROFEN SOLUBILITY (%) ([3]; solvent LABRASOL, mole equivalent hydroxide (KOH) 0.25, saturated solution): 40.0%
- IBUPROFEN SOLUBILITY (%) ([3]; solvent LABRASOL, mole equivalent hydroxide (KOH) 0.5, saturated solution): 45.0%
- IBUPROFEN SOLUBILITY (%) ([3]; solvent LABRASOL, mole equivalent hydroxide (KOH) 0.75, saturated solution): 42.5%
- IBUPROFEN SOLUBILITY (%) ([3]; solvent LABRASOL, mole equivalent hydroxide (KOH) 1.0, saturated solution): 40.0%
- IBUPROFEN SOLUBILITY (%) ([3]; solvent PLUROL OLEIQUE, mole equivalent hydroxide 0, saturated solution): 15.0%
- IBUPROFEN SOLUBILITY (%) ([3]; solvent PLUROL OLEIQUE, mole equivalent hydroxide (KOH) 0.5, saturated solution): 30.0%
- IBUPROFEN SOLUBILITY (%) ([3]; solvent PLURONIC L62, mole equivalent hydroxide 0, saturated solution): 10.0%
- IBUPROFEN SOLUBILITY (%) ([3]; solvent PLURONIC L62, mole equivalent hydroxide (KOH) 0.25, saturated solution): 15.0%
- IBUPROFEN SOLUBILITY (%) ([3]; solvent PLURONIC L62, mole equivalent hydroxide (KOH) 0.5, saturated solution): 20.0%
- IBUPROFEN SOLUBILITY (%) ([3]; solvent PLURONIC L62, mole equivalent hydroxide (KOH) 0.75, saturated solution): 27.5%
- IBUPROFEN SOLUBILITY (%) ([3]; solvent PLURONIC L62, mole equivalent hydroxide (KOH) 1.0, saturated solution): 30.0%
- IBUPROFEN SOLUBILITY (%) ([3]; solvent TRANSCUTOL, mole equivalent hydroxide 0, saturated solution): 42.5%
- IBUPROFEN SOLUBILITY (%) ([3]; solvent TRANSCUTOL, mole equivalent hydroxide (KOH) 0.25, saturated solution): 55.0%
- IBUPROFEN SOLUBILITY (%) ([3]; solvent TRANSCUTOL, mole equivalent hydroxide (KOH) 0.5, saturated solution): 60.0%
- IBUPROFEN SOLUBILITY (%) ([3]; solvent TRANSCUTOL, mole equivalent hydroxide (KOH) 0.75, saturated solution): 52.5%
- IBUPROFEN SOLUBILITY (%) ([3]; solvent TRANSCUTOL, mole equivalent hydroxide (KOH) 1.0, saturated solution): 52.5%

Source: patent US5376688A, “Enhanced solubility pharmaceutical solutions” (R. P. Scherer Corporation, priority 1992, dated 1994)
